The target of this test is Transient receptor potential cation channel subfamily M member 4 (Homo sapiens, UniProt Q8TD43). The experiment in a line: Inhibition of TRPM4 (unknown origin).

1 compound from BindingDB's records for doi:10.1016/j.ejmech.2019.01.048 (University of Berne, 2019) can be followed below.

Chain of Transient receptor potential cation channel subfamily M member 4 (Q8TD43 whole entry): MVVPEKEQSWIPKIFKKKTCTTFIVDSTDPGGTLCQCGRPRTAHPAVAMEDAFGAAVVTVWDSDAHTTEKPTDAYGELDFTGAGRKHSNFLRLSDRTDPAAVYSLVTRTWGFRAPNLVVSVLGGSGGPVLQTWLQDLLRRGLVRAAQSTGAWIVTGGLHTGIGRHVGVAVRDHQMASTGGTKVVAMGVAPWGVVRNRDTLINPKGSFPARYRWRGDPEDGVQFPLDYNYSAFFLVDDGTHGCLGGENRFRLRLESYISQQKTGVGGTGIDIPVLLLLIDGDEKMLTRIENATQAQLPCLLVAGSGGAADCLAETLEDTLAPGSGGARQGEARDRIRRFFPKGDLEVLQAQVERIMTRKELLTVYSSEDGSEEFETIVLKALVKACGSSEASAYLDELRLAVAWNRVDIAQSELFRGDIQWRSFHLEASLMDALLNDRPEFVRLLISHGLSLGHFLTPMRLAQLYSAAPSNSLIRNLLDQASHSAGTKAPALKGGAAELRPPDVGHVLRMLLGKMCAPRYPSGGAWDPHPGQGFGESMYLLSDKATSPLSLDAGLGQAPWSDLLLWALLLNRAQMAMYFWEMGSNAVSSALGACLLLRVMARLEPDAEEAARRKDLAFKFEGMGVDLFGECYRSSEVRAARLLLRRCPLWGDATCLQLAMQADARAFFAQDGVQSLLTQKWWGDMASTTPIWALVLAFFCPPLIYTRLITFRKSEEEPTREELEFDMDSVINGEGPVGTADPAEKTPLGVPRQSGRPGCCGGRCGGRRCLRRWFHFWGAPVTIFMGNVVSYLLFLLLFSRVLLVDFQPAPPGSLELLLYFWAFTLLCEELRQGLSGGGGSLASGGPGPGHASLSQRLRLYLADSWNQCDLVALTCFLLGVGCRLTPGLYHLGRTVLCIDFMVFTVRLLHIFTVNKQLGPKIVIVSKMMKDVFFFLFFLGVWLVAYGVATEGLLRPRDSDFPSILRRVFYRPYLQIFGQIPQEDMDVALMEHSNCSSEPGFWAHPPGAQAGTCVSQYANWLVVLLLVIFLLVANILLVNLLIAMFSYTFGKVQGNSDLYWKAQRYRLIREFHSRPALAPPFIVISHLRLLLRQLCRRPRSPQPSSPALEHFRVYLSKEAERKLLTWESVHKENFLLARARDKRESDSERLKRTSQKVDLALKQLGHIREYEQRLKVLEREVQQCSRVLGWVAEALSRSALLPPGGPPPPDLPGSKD

In the case of `Oc1cc2ccccc2c2ccccc12`, the IC50 amounted to 29 µM.
